Measured values published in US9095535B2, “GABA release-regulating agent in cerebellum” (KOREA INSTITUTE OF SCIENCE AND TECHNOLOGY, priority 2009, dated 2015).

Key:
GABAc receptors = test: Patch clamp of GABAc expressing HEK293 cells challenged with 100 μM GABA; format: cell-based; conditions: 100 μM GABA in absence or presence of 100 μM NFA and 100 μM NPPB
Procedure: FIGS. 7a and 7b show the results when GABAc expressing HEK293 cells were patch clamped and challenged with 100 μM GABA in the absence and presence of 100 μM NFA and 100 μM NPPB; and
In FIGS. 7a and 7b, GABAc expressing HEK293 cells were patch clamped and challenged with 100 μM GABA in the absence or presence of 100 μM NFA and 100 μM NPPB.

cerebellar granule cells = test: Clomeleon imaging of [Cl−]i in cerebellar granule cells (tonic GABA release); format: cell-based, mouse; conditions: bath application of 10 μM
Procedure: B6 wildtype, GFAP-GFP and hGFAP-CreERT2 trangenic mice (SPF room, Center for Neural Science, KIST, Seoul, Korea) were anaesthetized by intraperitoneal injection of 2% avertin (20 μl/g, sigma) and placed in a stereotaxic frame (David Kopf instrument). pSicoR-b1shRNA-mCherry or scrambled virus (Macrogen) was stereo-injected into cerebellar cortex at a rate of 0.2 μl/min (total 2 μl) using syringe pump (Harvard apparatus) and 25 μl syringe (Hamilton company). The coordination of injection site was 1.7 mm from the lambda and the depth was 1.5-1.7 mm from the skull. […]
Clomeleon, based on fluorescence resonance energy transfer (FRET), is a genetically-encoded fluorescent indicator for Cl^− in which chloride-sensitive yellow fluroscent protein fused with chloride-insensitive cyan fluorescent protein via a flexible peptide linker (Kuner and Augustine, 2000). […]
For imaging, two ROIs (Regions of Interest) covering the granule cell layer and the molecular layer were drawn. […] Fluorescence excitation was produced by two consecutive 200 to 500 ms long light pulses at 0.5 Hz and fluorescence emission was alternately collected at each wavelength with a back-illuminated, cooled CCD camera with the on-chip multiplication gain control (Cascade 512B, Photometrics). […]

Best1 channel = biological target: T1, Best1 channel (Mus musculus, UniProt O88870); format: cell-based; conditions: NPPB 50 μM; naïve GFAP-GFP mice; ramp protocol, Vh=−70 mV
T1 construct: from tissue; host or cells: mouse cerebellar slices / sections (Bergmann glial cells)
T1 sequence (O88870 1-551): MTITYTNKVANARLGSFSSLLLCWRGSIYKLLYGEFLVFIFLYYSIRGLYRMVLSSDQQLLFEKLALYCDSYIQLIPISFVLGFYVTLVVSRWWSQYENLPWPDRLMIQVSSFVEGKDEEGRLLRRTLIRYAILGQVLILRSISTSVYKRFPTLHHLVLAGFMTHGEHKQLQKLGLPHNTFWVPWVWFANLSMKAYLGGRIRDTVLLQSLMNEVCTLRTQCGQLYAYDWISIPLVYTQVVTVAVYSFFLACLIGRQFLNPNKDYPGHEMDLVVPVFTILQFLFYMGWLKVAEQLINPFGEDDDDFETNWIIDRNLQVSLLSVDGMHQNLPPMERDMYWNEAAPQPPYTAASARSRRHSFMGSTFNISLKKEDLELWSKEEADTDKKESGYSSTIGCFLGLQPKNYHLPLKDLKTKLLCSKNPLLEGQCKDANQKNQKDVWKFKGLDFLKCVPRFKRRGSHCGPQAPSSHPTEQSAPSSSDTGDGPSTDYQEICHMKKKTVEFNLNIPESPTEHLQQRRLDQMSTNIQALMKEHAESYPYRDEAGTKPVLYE
Procedure: Brain slices were prepared as described in Rossi et al., 2003. For slice recording, either approximately P28 days old or more than 8 weeks old mice were used. Animals were deeply anesthetized with halothane. After decapitation, the brain was quickly excised from the skull and submerged in ice-cold cutting solution (in mM): 250 Sucrose, 26 NaHCO3, 10 D(+)-Glucose, 4 MgCl2, 3 myo-inositol, 2.5 KCl, 2 Sodium pyruvate, 1.25 NaH2PO4, 0.5 Ascorbic acid 0.1 CaCl2, 1 Kynurenic acid, pH 7.4. All solutions were gas-treated with 95% O2-5% CO2. After trimming both sides of vermis, several parasagittal slices with […] thicknesses containing cerebellar lobes were cut using a microtome (Leica VT 1000) and transferred to extracellular ACSF solution (in mM); 126 NaCl, 24 NaHCO3, 1 NaH2PO4, 2.5 KCl, 2.5 CaCl2, 2 MgCl2, 10 D(+)-Glucose, pH 7.4. Slices were incubated for one hour at least at room temperature.
For recording, slices were transferred to an electrophysiological recording chamber (RC-26G, Warner Instruments) which is continuously superfused with ASCF (artificial cerebrospinal fluid, sigma) solution (flow rate; 2 ml/min) and controlled by flower controller (Synaptosoft) and a vacuum pump (Charles Austen, model Capex 8C). […] Fluorescence images were viewed with mercury lamp (Olympus, U-RFL-T). […]

With `O=C(O)c1cc([N+](=O)[O-])ccc1NCCCc1ccccc1` [NPPB, 5-nitro-2(3-phenylpropylamino)-benzoic acid] the “GABA response of GABAc expressing HEK293 cells” value (GABAc receptors) was “do not have significant impact”, the “[Cl−]i in granular cell bodies and parallel fibers” value (cerebellar granule cells) was “decreased” and the “Anion current in Bergmann glial cells” value (Best1 channel) was “decreased”.
